Patent US8324395B2, “Heterocyclic compound and use thereof” (Takeda Pharmaceutical Company Limited, priority 2007, dated 2012)

Each compound was assayed against T1, BRAF (V600E) kinase (Homo sapiens, UniProt P15056, V600E) (assay: Determination of BRAF (V600E) kinase inhibitory activity). Conditions: 1.0 μM test compound; BRAF (V600E) enzyme, GST-MEK1 (K96R) substrate, [γ-32P]ATP; read-out: Inhibitory rate (%) at 1.0 μM.
T1 construct: Flag (N); made in house; host or cells: SF-21 insect cells, recombinant baculovirus BAC-V600E
T1 sequence (P15056 457-717 V600E limits assumed): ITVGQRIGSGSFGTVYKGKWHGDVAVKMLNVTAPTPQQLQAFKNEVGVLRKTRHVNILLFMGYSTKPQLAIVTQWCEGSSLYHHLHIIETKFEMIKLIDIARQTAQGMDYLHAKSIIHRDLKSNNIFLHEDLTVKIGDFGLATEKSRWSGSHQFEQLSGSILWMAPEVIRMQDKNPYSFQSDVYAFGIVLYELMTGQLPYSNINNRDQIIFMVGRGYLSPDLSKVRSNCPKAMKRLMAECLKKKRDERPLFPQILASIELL
Format: biochemical
Protocol: Human BRAF gene was cloned by PCR using human Testis cDNA library (Clontech) as a template. The primer used for PCR was prepared from base sequence (Genbank Accession No.: NM_004333) information of BRAF gene by adding a base sequence encoding flag peptide and a recognition sequence of the restriction enzyme to area encoding the BRAF kinase domain region, so that the protein contains an N-terminal. Flag. The primer base sequence is shown below.
The PCR reaction was conducted using Pyrobest (Takara Shuzo Co., Ltd). The obtained PCR product was electrophoresed on agarose gel (1%), the DNA fragment amplified by PCR was recovered from the gel, and then digested with restriction enzymes EcoRI and SalI. The DNA treated with the restriction enzymes was electrophoresed on agarose gel (1%), and the obtained DNA fragment was recovered. The recovered DNA fragment was ligated to plasmid pFASTBAC1 (Invitrogen) digested with restriction enzymes EcoRI and SalI to give expression plasmid pFB-BRAF, and the base sequence of the insert fragment was confirmed. In addition, mutation was introduced into V600E using a Quick change Site Directed Mutagenesis kit (Stratagene). The base sequences of the primers used are shown in the following.
The obtained plasmid was sequenced to confirm the introduction of mutation into V600E. The DNA was digested with restriction enzymes EcoRI and SalI, DNA treated with the restriction enzymes was electrophoresed on agarose gel (1%), and the obtained DNA fragment was recovered. The recovered DNA fragment was ligated to plasmid pFASTBAC1 (Invitrogen) digested with restriction enzymes EcoRI and SalI to give expression plasmid pFB-V600E.
Using BAC-TO-BAC Baculovirus Expression System (Invitrogen), virus stock BAC-V600E of recombinant baculovirus was prepared.
SF-21 cells were sown at 1×10^6 cells/mL to Sf-900II SFM medium (1 L, Invitrogen) containing 10% fetal bovine serum (Trace), 50 mg/L Gentamicin (Invitrogen) and 0.1% Pluronic F-68 (Invitrogen), and shaking culture was performed using a 2 L volume Erlenmeyer flask at 27° C., 100 rpm. After culturing for 24 hr, recombinant baculovirus BAC-V600E (13.4 mL) was added to the mixture, and the mixture was further cultured for 3 days. The culture medium was centrifuged at 2,000 rpm for 5 min to give virus-infected cells. The infected cells were washed with a phosphate buffered saline (Invitrogen), centrifuged under the same conditions, and the cells were preserved at −80° C. The cryopreserved cells were thawed in ice, suspended in buffer A (50 mM Tris buffer (30 mL, pH 7.4) containing 20% glycerol, 0.15 M NaCl) supplemented with Complete Protease Inhibitor (Boehringer), and ruptured 3 times with a Polytron homogenizer (Kinematica) at 20,000 rpm for 30 sec. The ruptured medium was clarified by centrifugation at 40,000 rpm for 30 min and filtered with a 0.45 μm filter. The filtrate was passed through a column packed with Anti-FLAG M2 Affinity Gel (4 mL, Sigma) at a flow rate of about 0.5 mL/min. The column was washed with buffer A, and eluted with buffer A containing 100 μg/mL of FLAG peptide. The buffer of this eluate was exchanged using NAP25 column (Amersham Bioscience) equilibrated with buffer A and the fractions were cryopreserved at −80° C.
A test compound (2.5 μL) dissolved in dimethyl sulfoxide (DMSO) was added to 37.5 μL of a reaction mixture (25 mM HEPES (pH 7.5), 10 mM magnesium acetate, 1 mM dithiothreitol) containing BRAF (V600E) enzyme (30 ng) and recombinant type protein GST-MEK1 (K96R) 250 ng, and the mixture was incubated at room temperature for 10 min. ATP solution (10 μL, 2.5 μM ATP, 0.1 μCi [γ-^32P]ATP) was added to the obtained mixture, and the mixture was reacted at room temperature for 20 min. The reaction was quenched by adding 50 μL of ice-cooled. 20% trichloroacetic acid (Wako Pure Chemical Industries, Ltd.) to the reaction mixture. […]
CC(C)(C#N)c1cccc(C(=O)Nc2cccc(Oc3ccc4nc(NC(=O)C5CC5)sc4c3)c2)c1 [Example A12, 3-(1-cyano-1-methylethyl)-N-[3-({2-[(cyclopropylcarbonyl)amino]-1,3-benzothiazol-6-yl}oxy)phenyl]benzamide] was tested, and the inhibition at 1 µM was 100%.

These compounds were tested on human colon cancer cell HT-29 (assay: Colon cancer cell HT-29 growth suppressive action in vitro). Conditions: 72 h, HT-29 cells, 3 days culture, SRB staining of cell protein.
Format: cell-based
Protocol: A cell suspension (100 μL, 3,000 cells/well) of human colon cancer cell HT-29 (purchased from ATCC) was plated in a 96-well plate, and the cells were cultured at 37° C. in a 5% carbon dioxide gas incubator. The next day, 2-fold serial dilution of each test compound solution (diluted from maximum concentration 20 μM) (100 μL) was added, and the cells were cultured for 3 days. The culture medium containing the test compound was removed, and the cells were washed with phosphate buffer (PBS). A 50% trichloroacetic acid solution was added to the final concentration of 10% (v/v), and the mixture was stood overnight at 4° C., whereby the cells were fixed to the plate. Then, a dye SRB 0.4% (w/v) solution (dissolved in 1% acetic acid) was added at 50 μl/well, whereby the cell protein was fixed and stained (Skehan et al., Journal Of National Cancer Institute, vol. 82, pp. 1107-1112, 1990). The cells were washed 3 times with 1% acetic acid solution (200 μL/well), and 100 μL of an extract (10 mM Tris buffer) was added to extract the dye. The absorbance at an absorption wavelength […] was measured, and cell amount was measured as a protein amount. Taking the protein amount of the control group free of the test compound solution as 100%, the proportion of the residual protein amount of each treatment group was determined and the concentration of the compound necessary for suppressing the residual cell amount to 50% of the control (IC50 value) was calculated.
CC(C)(C#N)c1cccc(C(=O)Nc2cccc(Oc3ccc4nc(NC(=O)C5CC5)sc4c3)c2)c1 [Example A12, 3-(1-cyano-1-methylethyl)-N-[3-({2-[(cyclopropylcarbonyl)amino]-1,3-benzothiazol-6-yl}oxy)phenyl]benzamide] gave an IC50 of under 500 nM.
For COc1ccc(NC(=O)c2cccc(C(C)(C)C#N)c2)cc1Oc1ccc2nc(NC(=O)CN3CCN(C)CC3)sc2c1 [Example A23, 3-(1-cyano-1-methylethyl)-N-{4-methoxy-3-[(2-{[(4-methylpiperazin-1-yl)acetyl]amino}-1,3-benzothiazol-6-yl)oxy]phenyl}benzamide], the IC50 was under 500 nM.
With CC(=O)Nc1nc2ccc(Oc3cccc(NC(=O)c4cccc(C(C)(C)C#N)c4Cl)c3)cc2s1 [Example A41, N-(3-{[2-(acetylamino)-1,3-benzothiazol-6-yl]oxy}phenyl)-2-chloro-3-(1-cyano-1-methylethyl)benzamide] the IC50 was under 500 nM.
In the case of CC(=O)Nc1nc2ccc(Oc3cc(NC(=O)c4cccc(C(C)(C)C#N)c4Cl)ccc3F)cc2s1 [Example A47, N-(3-{[2-(acetylamino)-1,3-benzothiazol-6-yl]oxy}-4-fluorophenyl)-2-chloro-3-(1-cyano-1-methylethyl)benzamide], the IC50 is reported as under 500 nM.
In the case of CC(=O)Nc1nc2ccc(Oc3ccc(C)c(NC(=O)c4cccc(C(C)(C)C#N)c4)c3)cc2s1 [Example A49, N-(5-{[2-(acetylamino)-1,3-benzothiazol-6-yl]oxy}-2-methylphenyl)-3-(1-cyano-1-methylethyl)benzamide], the IC50 is reported as under 500 nM.
